Laboratory results as given in US9371331B2, “Modulators of methyl modifying enzymes, compositions and uses thereof” (Constellation Pharmaceuticals, Inc., priority 2012, dated 2016).
pEC50, pIC50: −log10 of the molar value. Like-named read-outs stand apart in the source and are kept apart here.

Key:
[1] = system: H3K27me3 mark in HeLa cells; test: H3K27me3 MSD Hela Assay; assay type: cell-based
Description: Trypsinized HeLa cells were counted and diluted in 10% DMEM (Life Technologies, Cat. #10569) to 5000 cells/75 μL. Seventy-five […] of cells were place in each well of a 96-well flat-bottomed plate and incubated at 37° C. for 4 hours. Twenty-five μL of test compound (at various concentrations) was added to the cells and incubation continued at 37° C. for 96 hours. Media was then removed and the cells rinsed once with ice cold PBS. Forty μL of ice-cold MSD Buffer AT (10 mM HEPES, pH 7.9, 5 mM MgCl2, 0.25M sucrose, Benzonase (1:10000), 1% Triton X-100 supplemented with fresh 1× Protease Inhibitor cocktail and 1 mM 4-(2-Aminoethyl)benzenesulfonyl fluoride hydrochloride (AEBSF)) was added to each well and the plates placed on ice for 30 minutes. Ten μL of 5M NaCl was then added to each well and incubation on ice continued for another 15 minutes. The material in each well was suspended pipetting up and down and then transferred to a new 96 well plate. The emptied wells were rinsed with 150 uL ice-cold 20 mM Tris pH 7.5, 1 mM EDTA, 1 mM EGTA, supplemented with fresh 1× Protease Inhibitor cocktail and 1 mM AEBSF (“NO salt NO detergent buffer) and transferred to the respective wells in the new plate. Three hundred μL of NO Salt NO detergent buffer was then added to each well of lysates and the plates frozen at −80° C.
On the same day, an appropriate number of MSD standard bind 96-well plates were coated with 30 μL/well of total H3 capture antibody (Millipore. Cat #MAB3422) at 1 μg/mL concentration in PBS. The antibody solution was evenly distributed first by tapping gently on the sides of the plates and then by shaking the plates for a few minutes at 1000 rpm. Antibody coated plates were stored at 4° C. overnight.
The next day the lysates are thawed to RT. The antibody coated MSD plates are washed 3× with TBS-T (Tris-buffered saline (Fisher Scientific, Cat #BP2471-1)+0.2% Tween-20). One-hundred fifty μL of 5% Blocker A in TBS-T is added to each well. The wells are covered and shaken on a shaker at RT for one hour. The Blocker A step is repeated a second time. After removing the blocker, 25 μL of cell lysate is transferred into each antibody coated well. The plates are shaken for 2 hours at RT, the lysate removed and the plates again washed with Blocker A in TBS-T. Twenty-five μL of appropriate freshly prepared antibody mix (including both primary and secondary antibodies) is added to each well and the plates shaken for 1 hour at RT.
Both H3 antibodies were obtained from Cell Signalling (Cat #s 4499 and 9733). The goat anti-rabbit antibody was obtained from Meso-Scale Discovery (Cat #R32AB-1).
The antibody mix was then removed and the wells washed with Blocker A. One hundred-fifty μL of freshly prepared 1×MSD Read Buffer (Meso-Scale Discovery; Cat #R927C-2) was then added to each well and the plates read on a MSD Sector 2400 Plate Reader.
Data was analyzed using Assay Assistant (Constellation Pharmaceuticals In-house product) and Activity Base (IDBS Ltd, Surrey, UK) template. Data files were imported to Assay Assistant and assay conditions were specified. A unique Analysis ID was created and the data files exported to Activity Base. An analysis template was created on Activity Base to measure dose-dependent inhibition of H3K27me3 mark and cell viability respectively. Readout of DMSO wells were used to normalize the data. Resulting curves were fitted using Activity base software Model 205 (IDBS Ltd. Surrey, UK). The data was checked for quality, validated and integrated in excel format using SARview (IDBS Ltd, Surrey, UK).

EZH2 (rPRC2) = EZH2 (rPRC2) (Homo sapiens, UniProt Q15910); test: EZH2 assay: rPRC2, biotinylated oligonucleosomes, 3H SAM methyl transfer (FlashPlate scintillation); assay type: biochemical; conditions: biotinylated oligonucleosome substrate
Y641N EZH2 = Y641N EZH2 (Homo sapiens, UniProt Q15910, Y641N); test: Y641N EZH2 assay: as EZH2 assay, with reconstituted H3K27Me2 oligonucleosomes as substrate; assay type: biochemical
[2] = HeLa cells, MSD, 96 hours; read-out: H3K27me3_MSD_HeLa_ (EC50)
[3] = wild-type EZH2 (rPRC2), read-out: EZH2 IC50
[4] = Y641N mutant EZH2, H3K27Me2 oligonucleosome substrate, read-out: Y641N EZH2 IC50
[5] = Homo sapiens, HeLa, 96 h, read-out: H3K27me3_MSD_HeLa_ (EC50)
[6] = EZH2 IC50, wild-type EZH2 (rPRC2)
[7] = Y641N EZH2 IC50, Y641N mutant EZH2, H3K27Me2 oligonucleosome substrate

Sequence of EZH2 (rPRC2) (Q15910 whole entry): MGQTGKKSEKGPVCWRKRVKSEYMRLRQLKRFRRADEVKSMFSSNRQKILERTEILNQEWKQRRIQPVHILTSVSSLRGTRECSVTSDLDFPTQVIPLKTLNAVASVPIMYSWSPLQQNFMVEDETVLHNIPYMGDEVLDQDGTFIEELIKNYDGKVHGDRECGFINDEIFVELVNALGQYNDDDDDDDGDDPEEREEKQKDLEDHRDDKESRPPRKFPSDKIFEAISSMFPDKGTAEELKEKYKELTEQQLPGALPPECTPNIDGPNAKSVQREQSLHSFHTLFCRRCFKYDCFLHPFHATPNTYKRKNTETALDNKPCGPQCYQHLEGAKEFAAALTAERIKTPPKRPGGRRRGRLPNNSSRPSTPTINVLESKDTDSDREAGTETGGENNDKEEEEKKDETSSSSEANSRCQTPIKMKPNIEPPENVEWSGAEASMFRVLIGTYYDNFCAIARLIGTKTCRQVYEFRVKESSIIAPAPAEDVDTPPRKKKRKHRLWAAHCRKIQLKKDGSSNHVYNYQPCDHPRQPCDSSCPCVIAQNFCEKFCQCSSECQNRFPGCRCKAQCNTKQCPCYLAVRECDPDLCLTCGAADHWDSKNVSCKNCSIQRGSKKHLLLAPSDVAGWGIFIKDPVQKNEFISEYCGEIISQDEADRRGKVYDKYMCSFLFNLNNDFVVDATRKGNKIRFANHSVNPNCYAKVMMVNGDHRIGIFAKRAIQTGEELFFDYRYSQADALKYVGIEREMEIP
Sequence of EZH2 (rPRC2) (O75530 whole entry partner): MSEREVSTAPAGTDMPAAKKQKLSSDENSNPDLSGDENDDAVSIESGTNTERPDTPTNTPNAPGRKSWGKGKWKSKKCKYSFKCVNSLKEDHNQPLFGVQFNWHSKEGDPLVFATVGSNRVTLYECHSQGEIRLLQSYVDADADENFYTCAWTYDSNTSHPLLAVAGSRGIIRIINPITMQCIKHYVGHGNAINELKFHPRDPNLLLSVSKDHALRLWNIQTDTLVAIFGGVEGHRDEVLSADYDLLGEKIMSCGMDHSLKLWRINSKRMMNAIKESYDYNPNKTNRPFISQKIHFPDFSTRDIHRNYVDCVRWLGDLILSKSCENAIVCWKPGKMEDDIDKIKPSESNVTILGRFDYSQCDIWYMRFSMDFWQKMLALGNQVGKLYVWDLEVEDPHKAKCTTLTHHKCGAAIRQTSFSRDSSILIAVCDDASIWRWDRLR
Sequence of EZH2 (rPRC2) (Q15022 whole entry partner): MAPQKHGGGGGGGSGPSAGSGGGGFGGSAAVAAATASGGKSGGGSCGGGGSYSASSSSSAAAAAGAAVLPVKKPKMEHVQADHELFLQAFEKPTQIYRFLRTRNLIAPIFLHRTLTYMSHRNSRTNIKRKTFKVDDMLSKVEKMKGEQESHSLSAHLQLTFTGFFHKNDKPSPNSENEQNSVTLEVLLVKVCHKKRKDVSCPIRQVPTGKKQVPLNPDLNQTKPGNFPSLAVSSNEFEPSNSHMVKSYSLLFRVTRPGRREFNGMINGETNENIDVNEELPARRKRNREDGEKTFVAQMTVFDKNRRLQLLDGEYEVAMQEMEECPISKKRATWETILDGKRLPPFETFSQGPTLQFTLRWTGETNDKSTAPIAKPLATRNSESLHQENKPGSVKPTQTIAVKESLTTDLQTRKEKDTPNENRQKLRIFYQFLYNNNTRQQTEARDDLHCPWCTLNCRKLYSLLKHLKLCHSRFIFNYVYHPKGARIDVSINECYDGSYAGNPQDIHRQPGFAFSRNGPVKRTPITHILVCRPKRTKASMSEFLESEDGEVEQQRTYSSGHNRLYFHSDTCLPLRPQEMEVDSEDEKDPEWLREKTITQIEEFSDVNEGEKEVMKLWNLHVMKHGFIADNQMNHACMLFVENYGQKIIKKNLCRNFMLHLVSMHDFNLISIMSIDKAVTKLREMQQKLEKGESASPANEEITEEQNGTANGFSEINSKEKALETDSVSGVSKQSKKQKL
Sequence of Y641N EZH2 (Q15910 whole entry Y641N): as the sequence (Q15910 whole entry) above, with Y641N counted along it
Sequence of Y641N EZH2 (O75530 whole entry partner): as the sequence (O75530 whole entry partner) above
Sequence of Y641N EZH2 (Q15022 whole entry partner): as the sequence (Q15022 whole entry partner) above

Row | Compound | pEC50 [1, 5] | pIC50 (EZH2 (rPRC2); [6]) | pIC50 (Y641N EZH2; [7]) | other results
1 | N-((4-methoxy-6-methyl-2-oxo-1,2-dihydropyridin-3-yl)methyl)-2-methyl-1-(1-(1-(methylsulfonyl)piperidin-3-yl)ethyl)-1H-indole-3-carboxamide [Compound 320] | – | – | – | pEC50 [1, 2]: 5.70 to 6.40; pIC50 (EZH2 (rPRC2); [3]): > 7.00; pIC50 (Y641N EZH2; [4]): > 7.00
2 | Cc1cc(C)c(CNC(=O)c2c(C)n([C@H](C)c3ccccc3)c3nc(N4CCOCC4)ncc23)c(O)n1 [Compound 143, (R)—N-((2-hydroxy-4,6-dimethylpyridin-3-yl)methyl)-6-methyl-2-morpholino-7-(1-phenylethyl)-7H-pyrrolo[2,3-d]pyrimidine-5-carboxamide] | 5.00 to 5.70 | > 7.00 | 5.00 to 6.00 | –
3 | COc1cc(C)[nH]c(=O)c1CNC(=O)c1c(C)n(C(C)C2CCN(C(=O)OC(C)(C)C)CC2)c2ccccc12 (single isomer, unassigned) [Compound 327, (R or S)-tert-butyl 4-(1-(3-((4-methoxy-6-methyl-2-oxo-1,2-dihydropyridin-3-yl)methylcarbamoyl)-2-methyl-1H-indol-1-yl)ethyl)piperidine-1-carboxylate] | > 6.40 | > 7.00 | > 7.00 | –
4 | COc1cc(C)[nH]c(=O)c1CNC(=O)c1c(C)n(C(C)C2CCOCC2)c2ncncc12 (single isomer, unassigned) [Compound 319, (R or S)-N-((4-methoxy-6-methyl-2-oxo-1,2-dihydropyridin-3-yl)methyl)-6-methyl-7-(1-(tetrahydro-2H-pyran-4-yl)ethyl)-7H-pyrrolo[2,3-d]pyrimidine-5-carboxamide] | > 6.40 | > 7.00 | > 7.00 | –
5 | Cc1cc(C)c(CNC(=O)c2c(C)n(C(C)Cn3cnc4ccccc43)c3ncccc23)c(=O)[nH]1 (racemic) [Compound 238, (±)-1-(1-(1H-benzo[d]imidazol-1-yl)propan-2-yl)-N-((4,6-dimethyl-2-oxo-1,2-dihydropyridin-3-yl)methyl)-2-methyl-1H-pyrrolo[2,3-b]pyridine-3-carboxamide] | – | – | – | pEC50 ([1]; Homo sapiens; HeLa cells, MSD, 96 hours; read-out: H3K27me3_MSD_HeLa_ (EC50)): 5.00 to 5.70; pIC50 (EZH2 (rPRC2); [3]): 6.00 to 7.00; pIC50 (Y641N EZH2; [4]): 5.00 to 6.00
6 | COCC(C)n1c(C)c(C(=O)NCc2c(OC)cc(C)[nH]c2=O)c2cccnc21 (single isomer, unassigned) [Compound 256, (R or S)-N-((4-methoxy-6-methyl-2-oxo-1,2-dihydropyridin-3-yl)methyl)-1-(1-methoxypropan-2-yl)-2-methyl-1H-pyrrolo[2,3-b]pyridine-3-carboxamide] | 5.70 to 6.40 | > 7.00 | 6.00 to 7.00 | –
7 | COc1cc(C)[nH]c(=O)c1CNC(=O)c1c(C)n(C(C)C2CCCN(S(C)(=O)=O)C2)c2ccccc12 (stereo not drawn) [Compound 318] | < 5.00 | > 7.00 | > 7.00 | –
8 | COc1cc(C)[nH]c(=O)c1CNC(=O)c1c(C)n(C(C)c2cccc(C#N)c2)c2ncccc12 (racemic) [Compound 239, (±)-1-(1-(3-cyanophenyl)ethyl)-N-((4-methoxy-6-methyl-2-oxo-1,2-dihydropyridin-3-yl)methyl)-2-methyl-1H-pyrrolo[2,3-b]pyridine-3-carboxamide] | 5.70 to 6.40 | > 7.00 | > 7.00 | –
9 | COCC(C)n1c(C)c(C(=O)NCc2c(OC)cc(C)[nH]c2=O)c2ccc(F)cc21 (racemic) [Compound 231, (±)-6-fluoro-N-((4-methoxy-6-methyl-2-oxo-1,2-dihydropyridin-3-yl)methyl)-1-(1-methoxypropan-2-yl)-2-methyl-1H-indole-3-carboxamide] | 5.70 to 6.40 | > 7.00 | 6.00 to 7.00 | –
10 | Cc1cc(C)c(CNC(=O)c2c(C)n(C(C)c3ccc(Cl)cc3)c3ccccc23)c(=O)[nH]1 (racemic) [Compound 170, (±)-1-(1-(4-chlorophenyl)ethyl)-N-((2-hydroxy-4,6-dimethylpyridin-3-yl)methyl)-2-methyl-1H-indole-3-carboxamide] | 5.00 to 5.70 | > 7.00 | 6.00 to 7.00 | –
11 | COC(C)C(C)n1c(C)c(C(=O)NCc2c(C)cc(C)[nH]c2=O)c2cccnc21 (stereo not drawn) [Compound 241, N-((4,6-dimethyl-2-oxo-1,2-dihydropyridin-3-yl)methyl)-1-(3-methoxybutan-2-yl)-2-methyl-1H-pyrrolo[2,3-b]pyridine-3-carboxamide] | 5.70 to 6.40 | > 7.00 | 6.00 to 7.00 | –
12 | Cc1cc(C)c(CNC(=O)c2c(C)n(C(C)c3cccc(S(C)(=O)=O)c3)c3ccccc23)c(=O)[nH]1 (racemic) [Compound 210, (±)-N-((4,6-dimethyl-2-oxo-1,2-dihydropyridin-3-yl)methyl)-2-methyl-1-(1-(3-(methylsulfonyl)phenyl)ethyl)-1H-indole-3-carboxamide] | 5.00 to 5.70 | > 7.00 | 6.00 to 7.00 | –
13 | COc1cc(C)[nH]c(=O)c1CNC(=O)c1c(C)n(C(C)CS(C)(=O)=O)c2ccccc12 (single isomer, unassigned) [Compound 279, (R or S)-N-((4-methoxy-6-methyl-2-oxo-1,2-dihydropyridin-3-yl)methyl)-2-methyl-1-(1-(methylsulfonyl)propan-2-yl)-1H-indole-3-carboxamide] | 5.00 to 5.70 | > 7.00 | 6.00 to 7.00 | –
14 | CCC(C)n1c(C)c(C(=O)NCc2c(C)cc(C)nc2O)c2ccccc21 (stereo not drawn) [Compound 123, 1-sec-butyl-N-((2-hydroxy-4,6-dimethylpyridin-3-yl)methyl)-2-methyl-1H-indole-3-carboxamide] | 5.70 to 6.40 | – | – | –
15 | COc1cc(C)[nH]c(=O)c1CNC(=O)c1c(C)n(C(C)c2ccccc2)c2cnccc12 (single isomer, unassigned) [Compound 259, (R or S)-N-((4-methoxy-6-methyl-2-oxo-1,2-dihydropyridin-3-yl)rnethyl)-2-methyl-1-(1-phenylethyl)-1H-pyrrolo[2,3-c]pyridine-3-carboxamide] | – | – | – | pEC50 ([1]; read-out: H3K27me3_MSD_HeLa_ (EC50); HeLa cells, MSD, 96 hours): 5.70 to 6.40; pIC50 (EZH2 (rPRC2); read-out: EZH2 IC50, wild-type EZH2 (rPRC2)): > 7.00
16 | Cc1cc(C)c(CNC(=O)c2c(C)n(C(C)c3ccccc3)c3ccccc23)c(O)n1 (single isomer, unassigned) [Compound 137, (R or S)—N-((2-hydroxy-4,6-dimethylpyridin-3-yl)methyl) 2-methyl-1-1-phenylethyl) 1H-indole-3-carboxamide] | – | – | – | pEC50 [1, 2]: 5.70 to 6.40
17 | CCC(C)n1c(C)c(C(=O)NCc2c(C)cc(C)nc2O)c2ccccc21 (single isomer, unassigned) [Compound 147, (R or S)-1-sec-butyl-N-((2-hydroxy-4,6-dimethylpyridin-3-yl)methyl)-2-methyl-1H-indole-3-carboxamide] | 5.70 to 6.40 | – | – | –
18 | COCC(C)n1c(C)c(C(=O)NCc2c(C)cc(C)[nH]c2=O)c2ccccc21 (single isomer, unassigned; peak 2) [Compound 218, (R or S)-N-((4,6-dimethyl-2-oxo-1,2-dihydropyridin-3-yl)methyl)-1-(1-methoxypropan-2-yl)-2-methyl-1H-indole-3-carboxamide-PEAK 2] | > 6.40 | – | – | –
